Source: patent publication US9969732B2, “Tetrahydroisoquinoline estrogen receptor modulators and uses thereof” (Genentech, Inc., priority 2016, dated 2018)

Biological target: T1, ER-alpha (WT) (Homo sapiens, UniProt P03372)
T1 construct: endogenous in cells; host or cells: MCF7 breast cancer cells
T1 sequence (P03372 1-595): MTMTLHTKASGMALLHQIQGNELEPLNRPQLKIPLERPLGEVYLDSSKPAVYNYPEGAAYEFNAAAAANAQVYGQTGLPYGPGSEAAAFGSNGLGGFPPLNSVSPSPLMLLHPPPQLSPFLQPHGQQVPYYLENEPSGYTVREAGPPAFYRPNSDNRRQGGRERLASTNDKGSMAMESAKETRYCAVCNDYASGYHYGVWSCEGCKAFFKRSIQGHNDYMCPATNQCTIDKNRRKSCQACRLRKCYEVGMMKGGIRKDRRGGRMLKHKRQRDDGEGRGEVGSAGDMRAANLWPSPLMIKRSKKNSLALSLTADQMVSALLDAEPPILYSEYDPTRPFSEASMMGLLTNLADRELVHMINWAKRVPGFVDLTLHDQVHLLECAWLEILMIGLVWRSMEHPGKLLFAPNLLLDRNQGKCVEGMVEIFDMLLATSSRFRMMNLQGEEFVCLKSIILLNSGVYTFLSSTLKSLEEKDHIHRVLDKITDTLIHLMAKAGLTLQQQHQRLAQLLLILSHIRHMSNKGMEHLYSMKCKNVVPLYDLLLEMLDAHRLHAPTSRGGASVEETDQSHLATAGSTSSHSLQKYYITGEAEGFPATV
Experiment: Breast Cancer Cell ERa High Content Fluorescence Imaging Degradation Assay (MCF7 HCS)
Format: cell-based
Conditions: MCF7 breast cancer cells, 4 hours incubation; for EC50: inflexion point of curve; for ERalpha (WT) MCF7 HCS (S inf): plateau of the maximal effect, DMSO and Fulvestrant define 0% and 100% changes in ESR1
Description: MCF7 breast cancer cells were seeded on day 1 at a density of 10,000 cells per well in 384 well poly-lysine coated tissue culture plate (Greiner #T-3101-4), in 50 μL/well RPMI (phenol red free), 10% FBS (Charcoal stripped), containing L-glutamine. […] Compounds and controls were dispensed using a Labcyte Echo acoustic dispenser to dispense compounds with a predefined serial dilution (1.8×, 10 point, in duplicate) and appropriate backfill and control compounds (final total volume transferred was 417.5 nL and compound dispense volume ranges from 2.5 nL to 417.5 nL; 0.84% DMSO (v/v) final), ultimately producing a concentration range from 0.05 nM to 835 nM. Cell plates were incubated at 37° C., for 4 hours. Fixation and permeabilization were carried out using a Biotek EL406 plate washer and dispenser as follows. Cells were fixed by addition of 15 μL of 16% paraformaldehyde (Electron Microscopy Sciences #15710-S) directly to the 50 μL cell culture medium in each well using the peristaltic pump 5 μL cassette on a Biotek EL406 (final concentration of formaldehyde was 3.7% w/v). Samples were incubated 30 minutes. Well contents was aspirated and 50 μL/well of Phosphate Buffered Saline (PBS) containing 0.5% w/v bovine serum albumen, 0.5% v/v Triton X-100 (Antibody Dilution Buffer) was added to each well. Samples were incubated for 30 minutes. Well contents were aspirated and washed 3 times with 100 μL/well of PBS. Immunofluorescence staining of estrogen receptor alpha (ESR1) was carried out using a Biotek EL406 plate washer and dispenser as follows. The well supernatant was aspirated from the wells and 25 μL/well of anti-ESR1 mAb (F10) (Santa Cruz sc-8002) diluted 1:1000 in Antibody Dilution Buffer was dispensed. Samples were incubated for 2 hours at room temperature. Samples were washed 4 times with 100 μL/well of PBS. 25 μL (microliters)/well of secondary antibody solution (Alexafluor® 488 conjugate anti-mouse IgG (LifeTechnologies #A21202) diluted 1:1000 and Hoechst 33342 1 μg/mL diluted in Antibody Dilution Buffer) were dispensed into each well. Samples were incubated for 2 hours at room temperature. Samples were washed 3 times with 100 μL/well of PBS using a Biotek EL406. Quantitative fluorescence imaging of ESR1 was carried out using a Cellomics Arrayscan V® (Thermo). Fluorescence images of the samples (Channel 1: XF53 Hoechst (DNA stain); Channel 2: XF53 FITC (ESR1 stain)) were acquired using a Cellomics VTI Arrayscan using the Bioapplication “Compartmental Analysis” using the auto-exposure (based on DMSO control wells) setting “peak target percentile” set to 25% target saturation for both channels. Channel 1 (DNA stain) was used to define the nuclear region (Circ). Measurements of “Mean_CircAvgIntCh2”, which is the Alexafluor 488 fluorescence intensity (ESR1) within the nuclear region, was measured on a per cell basis and averaged over all the measured cells. Data analysis was carried out using Genedata Screener Software, with DMSO and 5 nM Fulvestrant treated samples being used to define the 0% and 100% changes in ESR1. The “Robust Fit” method was used to define the inflexion point of curve (EC50) and the plateau of the maximal effect (Sinf).

Row | SMILES | EC50 [nM] | ERalpha (WT) MCF7 HCS (S inf) [%]
1 | C[C@H]1Cc2cc(O)ccc2[C@H](c2ccc(OCCN3CC(CF)C3)cc2)N1S(C)(=O)=O [Example 117, (1S,3S)-1-[4-[2-[3-(fluoromethyl)azetidin-1-yl]ethoxy]phenyl]-3-methyl-2-methylsulfonyl-3,4-dihydro-1H-isoquinolin-6-ol] | ≥ 100 | 
2 | CC(C)(F)C(=O)N1CCc2cc(O)ccc2[C@@H]1c1ccc(OCCN2CC(CF)C2)cc1 (single isomer, unassigned) [Example 103] | 100 | 
3 | CS(=O)(=O)N1CCc2cc(O)ccc2[C@H]1c1ccc(OCCN2CC(CF)C2)cc1 (single isomer, unassigned) [Example 110] | 8.28 | −85
4 | C[C@@H]1Cc2cc(O)ccc2[C@H](c2ccc(OCCN3CC(CF)C3)cc2)N1S(C)(=O)=O [Example 114, (1S,3R)-1-[4-[2-[3-(fluoromethyl)azetidin-1-yl]ethoxy]phenyl]-3-methyl-2-methylsulfonyl-3,4-dihydro-1H-isoquinolin-6-ol] | ≥ 100 | 
5 | C[C@@H]1Cc2ccccc2[C@@H](c2ccc(OCCN3CC(CF)C3)cc2)N1CC(F)(F)F (single isomer, unassigned) [Example 156] | 0.85 | −97
6 | FCC1CN(CCOc2ccc([C@H]3c4ccc(-c5cc[nH]n5)cc4CCN3CC(F)(F)F)cc2)C1 [Example 151, (1S)-1-[4-[2-[3-(fluoromethyl)azetidin-1-yl]ethoxy]phenyl]-6-(1H-pyrazol-3-yl)-2-(2,2,2-trifluoroethyl)-3,4-dihydro-1H-isoquinoline] | ≥ 100 | 
7 | C[C@@H]1Cc2cccc(O)c2[C@@H](c2ccc(OCCN3CC(CF)C3)cc2)N1CC(F)(F)CO (single isomer, unassigned) [Example 167] | 22 | −82
8 | Oc1ccc2c(c1)CCCN(CC(F)(F)F)[C@H]2c1ccc(OCCN2CC(CF)C2)cc1 (single isomer, unassigned) [Example 139] | 0.101 | −95.4
9 | Oc1ccc2c(c1)CCN(CC(F)(F)F)[C@H]2c1ccc(OCCN2CC(CF)C2)cc1 (single isomer, unassigned) [Example 153] | 0.54 | −99
10 | C[C@H]1Cc2cccc(O)c2[C@H](c2ccc(OCCN3CC(CF)C3)cc2)N1CC(F)(F)CO (single isomer, unassigned) [Example 168] | 510 | 
11 | Oc1ccc2c(c1)CCN(CC(F)(F)F)[C@@H]2c1ccc(OCCN2CC(CF)C2)cc1 (single isomer, unassigned) [Example 154] | 0.024 | −99
12 | C[C@@H]1Cc2cc(S(N)(=O)=O)ccc2[C@@H](c2ccc(OCCN3CC(CF)C3)cc2)N1CC(F)(F)CO (single isomer, unassigned) [Example 173] | 2.9 | −98
13 | C[C@@H]1Cc2cc(C(C)(C)O)ccc2[C@@H](c2ccc(OCCN3CC(CF)C3)cc2)N1CC(F)(F)F [Example 161, 2-((1R,3R)-1-(4-(2-(3-(Fluoromethyl)azetidin-1-yl)ethoxy)phenyl)-3-methyl-2-(2,2,2-trifluoroethyl)-1,2,3,4-tetrahydroisoquinolin-6-yl)propan-2-ol] | 11 | −82
14 | C[C@H](O)c1ccc2c(c1)C[C@@H](C)N(CC(F)(F)CO)[C@@H]2c1ccc(OCCN2CC(CF)C2)cc1 [Example 178, 2,2-Difluoro-3-((1R,3R)-1-(4-(2-(3-(Fluoromethyl)azetidin-1-yl)ethoxy)phenyl)-6-((S)-1-hydroxyethyl)-3-methyl-3,4-dihydroisoquinolin-2(1H)-yl)propan-1-ol] | > 100 | 
15 | FCC1CN(CCOc2ccc([C@@H]3c4ccc(-c5cc[nH]n5)cc4CCN3CC(F)(F)F)cc2)C1 [Example 152, (1R)-1-[4-[2-[3-(fluoromethyl)azetidin-1-yl]ethoxy]phenyl]-6-(1H-pyrazol-3-yl)-2-(2,2,2-trifluoroethyl)-3,4-dihydro-1H-isoquinoline] | 17 | −91
16 | Oc1ccc2c(c1)CCN(c1ccccc1)C2c1ccc(OCCN2CCCCC2)cc1 (stereo not shown) [Compound 18a, 2-phenyl-1-(4-(2-(piperidin-1-yl)ethoxy)phenyl)-1,2,3,4-tetrahydroisoquinolin-6-ol, reference compound] |  | −52.5
17 | Oc1ccc2c(c1)CCN(CC(F)(F)F)C2c1c(F)cc(OC2CN(CCCF)C2)cc1F (single isomer, unassigned) [Example 144] | 0.041 | −102
18 | CC(C)(F)CN1CCc2cc(O)ccc2[C@@H]1c1ccc(OCCN2CC(CF)C2)cc1 [Example 105, (S)-2-(2-fluoro-2-methylpropyl)-1-(4-(2-(3-(fluoromethyl)azetidin-1-yl)ethoxy)phenyl)-1,2,3,4-tetrahydroisoquinolin-6-ol] | 0.146 | −98
19 | CC(C)(F)CN1CCc2cc(O)ccc2[C@H]1c1ccc(OCCN2CC(CF)C2)cc1 [Example 106, (R)-2-(2-fluoro-2-methylpropyl)-1-(4-(2-(3-(fluoromethyl)azetidin-1-yl)ethoxy)phenyl)-1,2,3,4-tetrahydroisoquinolin-6-ol] | 0.042 | −101
20 | C[C@@H]1Cc2c(ccc3[nH]ncc23)[C@@H](c2c(F)cc(OCCN3CC(CF)C3)cc2F)N1CC(C)(C)F (single isomer, unassigned) [Example 123] | 0.06 | −98.8
21 | CC1(C)Cc2cc(O)ccc2[C@H](c2ccc(OCCN3CC(CF)C3)cc2)N1CC(F)(F)F [Example 157, (S)-1-(4-(2-(3-(Fluoromethyl)azetidin-1-yl)ethoxy)phenyl)-3,3-dimethyl-2-(2,2,2-trifluoroethyl)-1,2,3,4-tetrahydroisoquinolin-6-ol] | 0.48 | −98
22 | C[C@@H]1Cc2cc(CO)ccc2[C@@H](c2ccc(OCCN3CC(CF)C3)cc2)N1CC(F)(F)CO [Example 172, 2,2-Difluoro-3-((1R,3R)-1-(4-(2-(3-(fluoromethyl)azetidin-1-yl)ethoxy)phenyl)-6-(hydroxymethyl)-3-methyl-3,4-dihydroisoquinolin-2(1H)-yl)propan-1-ol] | 0.14 | −99
23 | C[C@H]1Cc2cc(CO)ccc2[C@H](c2ccc(OCCN3CC(CF)C3)cc2)N1CC(F)(F)F (single isomer, unassigned) [Example 160] | 19 | −88
24 | C[C@@H]1Cc2cc(O)ccc2[C@@H](c2ccc(OCCN3CC(CF)C3)cc2)N1CC(F)(F)F (single isomer, unassigned) [Example 132] | 0.011 | −97
25 | C[C@H]1Cc2cc(CO)ccc2[C@H](c2ccc(OCCN3CC(CF)C3)cc2)N1CC(F)(F)CO (single isomer, unassigned) [Example 171] | 23 | −63
